The term IC50 denotes the concentration needed to halve the response being measured. Usually DC50 stands for the concentration at which degradation of the target reaches its halfway point.

The target in the first test is T1, PIP4K2C (Homo sapiens, UniProt Q8TBX8).
T1 sequence (Q8TBX8 1-421): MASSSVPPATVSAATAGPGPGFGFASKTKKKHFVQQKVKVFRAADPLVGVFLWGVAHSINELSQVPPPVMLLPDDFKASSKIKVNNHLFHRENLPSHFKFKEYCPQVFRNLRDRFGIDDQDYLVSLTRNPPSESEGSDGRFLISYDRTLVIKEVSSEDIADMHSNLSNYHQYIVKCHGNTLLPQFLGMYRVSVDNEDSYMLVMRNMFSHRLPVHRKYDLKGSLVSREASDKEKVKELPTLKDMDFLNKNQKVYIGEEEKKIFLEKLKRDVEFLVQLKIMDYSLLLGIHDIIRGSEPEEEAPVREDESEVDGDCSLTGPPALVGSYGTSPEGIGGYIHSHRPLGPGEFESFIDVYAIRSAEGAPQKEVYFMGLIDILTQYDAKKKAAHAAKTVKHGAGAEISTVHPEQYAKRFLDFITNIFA
Kind of test: Enzyme Binding Assay (KINOMEscan): active site-directed competition binding to an immobilized ligand. The conditions noted are these: 11-point dose response, duplicate, top concentration 5 micromolar; read-out: Pip4k2c Kd: IC50. Also on record: purchased Eurofins DiscoverX, San Diego, CA 87-0007-1094. On the procedure: Example B-1: Enzyme Binding Assays (KINOMEscan)
PIP4K2C binding constants disclosed herein were determined using the proprietary Human PIP4K2C binding assay (Catalog number 87-0007-1094, Eurofins DiscoverX, San Diego, CA). This assay measures active site-directed competition binding to an immobilized ligand (see https://doi.org/10.1038/nbt1068, herein incorporated by reference in its entirety). Experiments were conducted using an 11-point dose response curve, in duplicate, with a top starting concentration of 5 micromolar; the Levenberg-Marquardt algorithm was used to fit a Hill equation to dose-response data to calculate IC50 values (see Table 5).
`NC(=O)[C@@H]1CCC[C@H](Nc2ncc(Cl)c(-c3cccc(-n4ccc(F)cc4=O)c3)n2)C1` (racemic) [Compound 168, rac-(1R,3S)-3-((5-chloro-4-(3-(4-fluoro-2-oxopyridin-1 (2H)-yl)phenyl)pyrimidin-2-yl)amino)cyclohexane-1-carboxamide]: the IC50 was less than 500 nM. The same measure, in the same setting: the value for `NC(=O)[C@H]1CCC[C@@H](Nc2ncc(F)c(-c3cccc(-c4ccc(=O)[nH]c4)c3)n2)C1` (racemic) [Compound 201, cis-3-((5-fluoro-4-(3-(6-oxo-1,6-dihydropyridin-3-yl)phenyl)pyrimidin-2-yl)amino)cyclohexane-1-carboxamide] was less than 500 nM; that for `NC(=O)[C@H]1CCC[C@@H](Nc2ncc(Cl)c(-c3ccc(F)cc3)n2)C1` (relative stereo) [Compound 28, cis-3-((5-chloro-4-(4-fluorophenyl)pyrimidin-2-yl)amino)cyclohexane-1-carboxamide] was 1000 to 5000 nM; that for `CC(=O)N[C@H]1CCC[C@@H](Nc2ncc(Cl)c(-c3cccc(-c4ccccc4)c3)n2)C1` (relative stereo) [Compound 33, cis-N-(3-((4-([1,1′-biphenyl]-3-yl)-5-chloropyrimidin-2-yl)amino)cyclohexyl)acetamide] was less than 500 nM.

For the compound `CC(=O)N[C@@H]1CCC[C@@H](Nc2ncc(Cl)c(-c3cccc(-c4ccccc4)c3)n2)C1` (relative stereo) [Compound 34, trans-N-(3-((4-([1,1′-biphenyl]-3-yl)-5-chloropyrimidin-2-yl)amino)cyclohexyl)acetamide], the IC50 is less than 500 nM. Consider `NC(=O)[C@@H]1CCC[C@H](Nc2ncc(F)c(-c3cccc(N4CCCC4)c3)n2)C1` (relative stereo) [Compound 36, cis-3-((5-fluoro-4-(3-(pyrrolidin-1-yl)phenyl)pyrimidin-2-yl)amino)cyclohexane-1-carboxamide], for which the IC50 is less than 500 nM. The same measure, in the same setting: with `NC(=O)[C@@H]1CCC[C@H](Nc2ncc(F)c(-c3cccc(C4CCC4)c3)n2)C1` (relative stereo) [Compound 38, cis-3-((4-(3-cyclobutylphenyl)-5-fluoropyrimidin-2-yl)amino)cyclohexane-1-carboxamide] the figure was less than 500 nM.

The next test deals with T1, PIP4K2C. Kind of test: HiBiT PIP4K2C degradation assay in MOLT-4 cells (endogenous PIP4K2C C-terminally tagged with HiBiT). Type of test: cell-based. More on the design: untagged in primary human PBMCs and monocyte-derived dendritic cells. To be noted: 6 hours of incubation time, rather than 24 hours; MOLT-4, top concentration 10 micromolar; read-out: HiBIT-degradation MOLT4 PIP4k2C DC50 (6 hours, marked *). The essentials: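 Endogenous PIP4K2C was C-terminally HiBiT-tagged by CRISPR-Cas9 in MOLT-4 cells, which were treated with a 10-point, 3-fold dilution series from 10 micromolar in duplicate for 24 or 6 hours at 37 C. Remaining protein was read by HiBiT lytic luminescence, and DC50 came from a Hill fit.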
In general terms: The HiBiT peptide binds its large partner to form an active luciferase.
As to `O=C1CCC(Nc2ccc(C3CCN([C@H]4CC[C@H](NC(=O)[C@H]5CC[C@H](Nc6ncc(F)c(-c7ccnc(-n8ccccc8=O)c7)n6)CC5)CC4)CC3)c(F)c2)C(=O)N1` (stereo partly drawn) [Compound 696, trans-N-(trans-4-(4-(4-((2,6-dioxopiperidin-3-yl)amino)-2-fluorophenyl)piperidin-1-yl)cyclohexyl)-4-((5-fluoro-4-(2-oxo-2H-[1,2′-bipyridin]-4′-yl)pyrimidin-2-yl)amino)cyclohexane-1-carboxamide], the DC50 is less than 500 nM. Still for that read-out and setting: with `O=C1CCC(Nc2ccc(C3CCN(CCC4CCN(C(=O)O[C@H]5CC[C@H](Nc6ncc(F)c(-c7cccc(-n8ccccc8=O)c7)n6)CC5)CC4)CC3)c(F)c2)C(=O)N1` (stereo partly drawn) [Compound 697, trans-4-((5-fluoro-4-(3-(2-oxopyridin-1 (2H)-yl)phenyl)pyrimidin-2-yl)amino)cyclohexyl 4-(2-(4-(4-((2,6-dioxopiperidin-3-yl)amino)-2-fluorophenyl)piperidin-1-yl)ethyl)piperidine-1-carboxylate] the figure was less than 500 nM; with `O=C1CCC(Nc2ccc(N3CCC(N4CCN(C(=O)O[C@H]5CC[C@H](Nc6ncc(F)c(-c7cccc(-n8ccccc8=O)c7)n6)CC5)CC4)CC3)c(F)c2)C(=O)N1` (stereo partly drawn) [Compound 698, trans-4-((5-fluoro-4-(3-(2-oxopyridin-1 (2H)-yl)phenyl)pyrimidin-2-yl)amino)cyclohexyl 4-(1-(4-((2,6-dioxopiperidin-3-yl)amino)-2-fluorophenyl)piperidin-4-yl)piperazine-1-carboxylate], less than 500 nM; with `O=C1CCC(Nc2ccc(N3CCN([C@H]4CC[C@H](OC(=O)N5CCC(Nc6ncc(F)c(-c7cccc(-n8ccccc8=O)c7)n6)CC5)CC4)CC3)c(F)c2)C(=O)N1` (stereo partly drawn) [Compound 699, trans-(1R,4r)-4-(4-(4-(((R)-2,6-dioxopiperidin-3-yl)amino)-2-fluorophenyl)piperazin-1-yl)cyclohexyl 4-((5-fluoro-4-(3-(2-oxopyridin-1 (2H)-yl)phenyl)pyrimidin-2-yl)amino)piperidine-1-carboxylate], less than 500 nM.

Regarding `O=C1CCC(Nc2ccc(N3CCC(N4CCC(NC(=O)[C@H]5CC[C@H](Nc6ncc(F)c(-c7cccc(N8CCCCC8)c7)n6)CC5)CC4)C(F)C3)c(F)c2)C(=O)N1` (stereo partly drawn) [Compound 700, trans-N-(1′-(4-((2,6-dioxopiperidin-3-yl)amino)-2-fluorophenyl)-3′-fluoro-[1,4′-bipiperidin]-4-yl)-4-((5-fluoro-4-(3-(piperidin-1-yl)phenyl)pyrimidin-2-yl)amino)cyclohexane-1-carboxamide], the DC50 is less than 500 nM.

Consider `O=C1CCC(Nc2ccc(N3CCC(N4CCC(NC(=O)[C@H]5CC[C@H](Nc6ncc(F)c(-c7cccc(N8CCCCC8=O)c7)n6)CC5)CC4)C(F)C3)c(F)c2)C(=O)N1` (stereo partly drawn) [Compound 701, trans-N-(1′-(4-((2,6-dioxopiperidin-3-yl)amino)-2-fluorophenyl)-3′-fluoro-[1,4′-bipiperidin]-4-yl)-4-((5-fluoro-4-(3-(2-oxopiperidin-1-yl)phenyl)pyrimidin-2-yl)amino)cyclohexane-1-carboxamide], for which the half-maximal degradation concentration (DC50) is less than 500 nM. On the same count and under the same terms, the value for `O=C1CCC(Nc2ccc(N3CCC(N4CCC(C(=O)NC5CCC(Nc6ncc(F)c(-c7cccc(-c8ccc[nH]c8=O)c7)n6)CC5)CC4)CC3)c(F)c2)C(=O)N1` [Compound 702, trans-1′-(4-(((S)-2,6-dioxopiperidin-3-yl)amino)-2-fluorophenyl)-N-((1r,4r)-4-((5-fluoro-4-(3-(2-oxo-1,2-dihydropyridin-3-yl)phenyl)pyrimidin-2-yl)amino)cyclohexyl)-[1,4′-bipiperidine]-4-carboxamide] was less than 500 nM; that for `O=C1CCC(Nc2ccc(N3CCN(C[C@H]4CC[C@H](CC(=O)N[C@H]5CC[C@H](Nc6ncc(F)c(-c7cccc(-c8ccc[nH]c8=O)c7)n6)CC5)CC4)CC3)c(F)c2)C(=O)N1` (stereo partly drawn) [Compound 703, trans-2-((1r,4R)-4-((4-(4-((2,6-dioxopiperidin-3-yl)amino)-2-fluorophenyl)piperazin-1-yl)methyl)cyclohexyl)-N-((1r,4R)-4-((5-fluoro-4-(3-(2-oxo-1,2-dihydropyridin-3-yl)phenyl)pyrimidin-2-yl)amino)cyclohexyl)acetamide] was less than 500 nM; that for `O=C1CCC(Nc2ccc(N3CCC(CN4CCC(CC(=O)N[C@H]5CC[C@H](Nc6ncc(F)c(-c7cccc(-n8ccccc8=O)c7)n6)CC5)CC4)CC3)c(F)c2)C(=O)N1` (stereo partly drawn) [Compound 704, trans-2-(1-((1-(4-((2,6-dioxopiperidin-3-yl)amino)-2-fluorophenyl)piperidin-4-yl)methyl)piperidin-4-yl)-N-(4-((5-fluoro-4-(3-(2-oxopyridin-1 (2H)-yl)phenyl)pyrimidin-2-yl)amino)cyclohexyl)acetamide] was less than 500 nM. As for `O=C1CC[C@@H](Nc2ccc(C3CCN([C@H]4CC[C@H](C(=O)N[C@H]5CC[C@H](Nc6ncc(F)c(-c7cccc(-n8ccccc8=O)c7)n6)CC5)CC4)CC3)c(F)c2)C(=O)N1` [Compound 706, (1R,4R)-4-(4-(4-(((R)-2,6-dioxopiperidin-3-yl)amino)-2-fluorophenyl)piperidin-1-yl)-N-((1r,4R)-4-((5-fluoro-4-(3-(2-oxopyridin-1(2H)-yl)phenyl)pyrimidin-2-yl)amino)cyclohexyl)cyclohexane-1-carboxamide], the half-maximal degradation concentration (DC50) is less than 500 nM. In the case of “trans-(1r,4R)-4-(4-(4-((2,6-dioxopiperidin-3-yl)amino)-2-fluorophenyl)piperidin-1-yl)-N-((1r,4R)-4-((5-fluoro-4-(6-(2-oxo-1,3-oxazinan-3-yl)pyridin-2-yl)pyrimidin-2-yl)amino)cyclohexyl)cyclohexane-1-carboxamide [Compound 539]”, the DC50 was more than 5000 nM.

The same test, now with this note: 24 hours incubation, MOLT-4, top concentration 10 micromolar; read-out: HiBIT-degradation MOLT4 PIP4k2C 24 hours DC50.
For `O=C1CCC(N2Cc3cc(C4CCN(C5CCCN(CC(=O)N6CCC(Nc7ncc(Cl)c(-c8cccc(-c9ccc(F)cc9)c8)n7)CC6)C5)CC4)ccc3C2=O)C(=O)N1` (stereo not shown) [Compound 705, 3-(5-(1′-(2-(4-((5-chloro-4-(4′-fluoro-[1,1′-biphenyl]-3-yl)pyrimidin-2-yl)amino)piperidin-1-yl)-2-oxoethyl)-[1,3′-bipiperidin]-4-yl)-1-oxoisoindolin-2-yl)piperidine-2,6-dione], the DC50 was less than 500 nM.

Source of the values: patent publication US20260355196A1, “INHIBITORS AND DEGRADERS OF PIP4K PROTEIN” (Larkspur Biosciences, Inc., priority 2023, published 2026).
